# Experiments:
# [1] = tested on: β-adrenergic receptor endogenously expressed in COS-7 cells; conditions: COS-7 with endogenous β-adrenergic receptor
# gpr126 mutant zebrafish = conditions: forskolin-induced cAMP elevation, ref Monk et al., 2009; cited from earlier work
Structure (SMILES),dynamic mass redistribution response (EPIC) [1],reversal of peripheral myelination phenotype (gpr126 mutant zebrafish)
CC(C)NCC(O)c1ccc(O)c(O)c1 (centres unmarked) [isoprenaline],concentration-dependent cellular responses,–
C=C[C@@]1(C)CC(=O)[C@]2(O)[C@@]3(C)[C@@H](O)CCC(C)(C)[C@@H]3[C@H](O)[C@H](OC(C)=O)[C@@]2(C)O1 [forskolin],–,reversible
